Data published in patent publication US8227613B2, “Heteroaryl carboxamide derivatives” (Hoffmann-La Roche Inc., priority 2008, dated 2012).

molecular target: T1, human chemokine receptor 2 isoform B (CCR2B) (Homo sapiens, UniProt P41597); test: Calcium mobilization assay (FLIPR, MCP-1 stimulated CHOK1-CCR2B-A5 cells); format: cell-based; details: 20 nM MCP-1, antagonist activity, read-out: IC50 (inhibitor concentration required for 50% inhibition of specific calcium increases)
T1 construct: host or cells: CHO-K1 (CHOK1-CCR2B-A5)
T1 sequence (P41597 1-360 isoform P41597-2): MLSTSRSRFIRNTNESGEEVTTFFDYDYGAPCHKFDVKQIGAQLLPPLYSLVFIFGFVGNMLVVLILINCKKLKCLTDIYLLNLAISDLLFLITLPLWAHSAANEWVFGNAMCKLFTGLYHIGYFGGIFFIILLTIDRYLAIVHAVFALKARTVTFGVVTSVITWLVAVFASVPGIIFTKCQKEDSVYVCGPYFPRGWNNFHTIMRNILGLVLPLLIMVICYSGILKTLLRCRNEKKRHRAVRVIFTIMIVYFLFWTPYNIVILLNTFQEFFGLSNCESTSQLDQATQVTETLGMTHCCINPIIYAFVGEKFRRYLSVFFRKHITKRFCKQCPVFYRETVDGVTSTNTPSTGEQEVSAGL
Experimental: Calcium Mobilization Assay
CHOK1-CCR2B-A5 cells (from Euroscreen) stably overexpressing the human chemokine receptor 2 isoform B were cultured in Nutrient Hams F12 medium supplemented with 5% FBS, 100 U/ml penicillin, 100 μg/ml streptomycin, 400 μg/ml G418 and 5 μg/ml puromycin.
For the assay cells were grown overnight in 384-well black clear flat bottom polystyrene plates (Costar) at 37° C. at 5% CO2. After washing with DMEM, 20 mM Hepes, 2.5 mM probenecid, 0.1% BSA (DMEM assay buffer) cells were loaded with 4 μM Fluo-4 in the same DMEM assay buffer for 2 hours at 30° C. Excess dye was removed and cells were washed with DMEM assay buffer. 384-well compound plates were prepared with DMEM assay buffer/0.5% DMSO with or without various concentrations of test compounds. Usually compounds were tested for agonist and antagonist activity.
Test compounds were added to the assay plate and agonist activity was monitored as fluorescence for 80 seconds with a FLIPR (488 nm excitation; 510-570 nm emission; Molecular Devices). After 20-30 min. of incubation at 30° C., 20 nM MCP-1 (R&D; Roche) was added and fluorescence was monitored again for 80 seconds. Increases in intracellular calcium are reported as maximum fluorescence after agonist exposure minus basal fluorescence before exposure. Antagonist activity is indicated as inhibitor concentration required for 50% inhibition of specific calcium increases.

Structure (SMILES) | IC50
Cc1cc(-c2cccc(C(F)(F)F)c2)c(-c2ccnn2C)nc1C(=O)N1CCC(N2CCCC2)CC1 [Example 53, [3-Methyl-6-(2-methyl-2H-pyrazol-3-yl)-5-(3-trifluoromethyl-phenyl)-pyridin-2-yl]-(4-pyrrolidin-1-yl-piperidin-1-yl)-methanone] | 15 nM
Cc1cc(-c2cccc(C(F)(F)F)c2)c(-c2cncnc2)nc1C(=O)N1CCC(N2CCCC2)CC1 [Example 17, [3-Methyl-6-pyrimidin-5-yl-5-(3-trifluoromethyl-phenyl)-pyridin-2-yl]-(4-pyrrolidin-1-yl-piperidin-1-yl)-methanone] | 8.7 nM
Cc1cc(-c2cccc(C(F)(F)F)c2)c(N)nc1C(=O)N1CCC(N2CCCC2)CC1 [Example 7, [6-Amino-3-methyl-5-(3-trifluoromethyl-phenyl)-pyridin-2-yl]-(4-pyrrolidin-1-yl-piperidin-1-yl)-methanone] | 16 nM
Cc1cc(-c2cccc(C(F)(F)F)c2)c(-c2ccc(N)nc2)nc1C(=O)N1CCC(N2CCCC2)CC1 [Example 40, [6′-Amino-5-methyl-3-(3-trifluoromethyl-phenyl)-[2,3′]bipyridinyl-6-yl]-(4-pyrrolidin-1-yl-piperidin-1-yl)-methanone] | 3.9 nM
Cc1cc(-c2cccc(C(F)(F)F)c2)c(C(=O)N2CCN(C(=O)OC(C)(C)C)CC2)nc1C(=O)N1CCC(N2CCCC2)CC1 [Example 59, 4-[5-Methyl-6-(4-pyrrolidin-1-yl-piperidine-1-carbonyl)-3-(3-trifluoromethyl-phenyl)-pyridine-2-carbonyl]-piperazine-1-carboxylic acid tert-butyl ester] | 490 nM
Cc1cc(-c2cccc(C(F)(F)F)c2)c(C(=O)N2CCNCC2)nc1C(=O)N1CCC(N2CCCC2)CC1 [Example 61, [5-Methyl-6-(4-pyrrolidin-1-yl-piperidine-1-carbonyl)-3-(3-trifluoromethyl-phenyl)-pyridin-2-yl]-piperazin-1-yl-methanone] | 320 nM
Cc1cc(-c2cccc(C(F)(F)F)c2)c(Cl)nc1C(=O)N1CCC(N2CCCC2)CC1 [Example 3, [6-Chloro-3-methyl-5-(3-trifluoromethyl-phenyl)-pyridin-2-yl]-(4-pyrrolidin-1-yl-piperidin-1-yl)-methanone] | 4 nM
Cc1cc(-c2cccc(C(F)(F)F)c2)c(-n2cncn2)nc1C(=O)N1CCC(N2CCCC2)CC1 [Example 25, [3-Methyl-6-[1,2,4]triazol-1-yl-5-(3-trifluoromethyl-phenyl)-pyridin-2-yl]-(4-pyrrolidin-1-yl-piperidin-1-yl)-methanone] | 2.3 nM
Cc1cc(-c2cccc(C(F)(F)F)c2)c(CO)nc1C(=O)N1CCC(N2CCCC2)CC1 [Example 46, [6-Hydroxymethyl-3-methyl-5-(3-trifluoromethyl-phenyl)-pyridin-2-yl]-(4-pyrrolidin-1-yl-piperidin-1-yl)-methanone] | 12 nM
Cc1cc(-c2cccc(C(F)(F)F)c2)c(C(=O)NC2CCN(C(=O)OC(C)(C)C)CC2)nc1C(=O)N1CCC(N2CCCC2)CC1 [Example 57, 4-{[5-Methyl-6-(4-pyrrolidin-1-yl-piperidine-1-carbonyl)-3-(3-trifluoromethyl-phenyl)-pyridine-2-carbonyl]-amino}-piperidine-1-carboxylic acid tert-butyl ester] | 210 nM
Cc1cc(-c2cccc(C(F)(F)F)c2)c(-c2ccc(O)nc2)nc1C(=O)N1CCC(N2CCCC2)CC1 [Example 41, [6′-Hydroxy-5-methyl-3-(3-trifluoromethyl-phenyl)-[2,3′]bipyridinyl-6-yl]-(4-pyrrolidin-1-yl-piperidin-1-yl)-methanone] | 16 nM
Cc1cc(-c2cccc(C(F)(F)F)c2)c2nnnn2c1C(=O)N1CCC(N2CCCC2)CC1 [Example 65, [6-Methyl-8-(3-trifluoromethyl-phenyl)-tetrazolo[1,5-a]pyridin-5-yl]-(4-pyrrolidin-1-yl-piperidin-1-yl)-methanone] | 7.6 nM
COc1nc(C(=O)N2CCC(N3CCCC3)CC2)c(Cl)cc1-c1cccc(C(F)(F)F)c1 [Example 22, [3-Chloro-6-methoxy-5-(3-trifluoromethyl-phenyl)-pyridin-2-yl]-(4-pyrrolidin-1-yl-piperidin-1-yl)-methanone] | 18 nM
Cc1cc(-c2cccc(C(F)(F)F)c2)c(C(N)=O)nc1C(=O)N1CCC(N2CCCC2)CC1 [Example 43, 5-Methyl-6-(4-pyrrolidin-1-yl-piperidine-1-carbonyl)-3-(3-trifluoromethyl-phenyl)-pyridine-2-carboxylic acid amide] | 25 nM
Cc1cc(-c2cccc(C(F)(F)F)c2)c(C(=O)O)nc1C(=O)N1CCC(N2CCCC2)CC1 [Example 47, 5-Methyl-6-(4-pyrrolidin-1-yl-piperidine-1-carbonyl)-3-(3-trifluoromethyl-phenyl)-pyridine-2-carboxylic acid] | 310 nM
Cc1cc(-c2cccc(C(F)(F)F)c2)c(NCCN)nc1C(=O)N1CCC(N2CCCC2)CC1 [Example 26, [6-(2-Amino-ethylamino)-3-methyl-5-(3-trifluoromethyl-phenyl)-pyridin-2-yl]-(4-pyrrolidin-1-yl-piperidin-1-yl)-methanone] | 67 nM
COc1ccc(CNc2nc(C(=O)N3CCC(N4CCCC4)CC3)c(C)cc2-c2cccc(C(F)(F)F)c2)cc1 [Example 6, [6-(4-Methoxy-benzylamino)-3-methyl-5-(3-trifluoromethyl-phenyl)-pyridin-2-yl]-(4-pyrrolidin-1-yl-piperidin-1-yl)-methanone] | 130 nM
Cc1cc(-c2cccc(C(F)(F)F)c2)c(C(=O)Nc2cccnc2)nc1C(=O)N1CCC(N2CCCC2)CC1 [Example 56, 5-Methyl-6-(4-pyrrolidin-1-yl-piperidine-1-carbonyl)-3-(3-trifluoromethyl-phenyl)-pyridine-2-carboxylic acid pyridin-3-ylamide] | 13 nM
Cc1cc(-c2cccc(C(F)(F)F)c2)c(C#N)nc1C(=O)N1CCC(N2CCCC2)CC1 [Example 42, 5-Methyl-6-(4-pyrrolidin-1-yl-piperidine-1-carbonyl)-3-(3-trifluoromethyl-phenyl)-pyridine-2-carbonitrile] | 26 nM
Cc1cc(-c2cccc(C(F)(F)F)c2)c[n+]([O-])c1C(=O)N1CCC(N2CCCC2)CC1 [Example 2, [3-Methyl-1-oxy-5-(3-trifluoromethyl-phenyl)-pyridin-2-yl]-(4-pyrrolidin-1-yl-piperidin-1-yl)-methanone] | 23 nM
Cc1cc(-c2cccc(C(F)(F)F)c2)c(C(=O)NC2CCNCC2)nc1C(=O)N1CCC(N2CCCC2)CC1 [Example 60, 5-Methyl-6-(4-pyrrolidin-1-yl-piperidine-1-carbonyl)-3-(3-trifluoromethyl-phenyl)-pyridine-2-carboxylic acid piperidin-4-ylamide] | 290 nM
Cc1cc(-c2cc(C(F)(F)F)ccc2F)cnc1C(=O)N1CCC(N2CCCC2)CC1 [Example 31, [5-(2-Fluoro-5-trifluoromethyl-phenyl)-3-methyl-pyridin-2-yl]-(4-pyrrolidin-1-yl-piperidin-1-yl)-methanone] | 25 nM
